From patent US20160115540A1, “PRODRUGS AND DRUGS” (Biogen MA Inc., priority 2013, published 2016) come the findings set out here.

“Also recorded” adds a separate entry of the source. Where a name gives a salt, the structure may show the parent alone.

Test [1] has as its system NK cells. The test can be described thus: Flow cytometry of NK cell surface markers (MFI) in naïve mice. The test is classed as in vivo, C57Bl/6 mice. The following applies: 12 hr after 100 mpk PO. From the text:
Protein expression is quantified by mean fluorescent intensity (MFI).
12-hours post-dose, mice were sacrificed and blood, spleen, and inguinal lymph node were collected for analysis by flow cytometry.
Transcriptional differences in NK cell markers were confirmed at the protein level by flow cytometry. […] Protein expression was quantified by mean fluorescent intensity (MFI). […] 12-hours post-dose, mice were sacrificed and blood, spleen, and inguinal lymph node (iLN) were collected for analysis by flow cytometry.
In general terms: Flow cytometry measures light scatter and fluorescence of single cells or particles in a stream.

In test [2] the test system is brain. The test can be described thus: Transcriptional profiling, multi-dosing regimen, naïve mice: brain. The test is classed as in vivo. The conditions noted are these: for FC: BRAIN_HEMI, 100DMF-vs-Veh; for FC, Depp (1433836_PM_a_at): BrainHemi, multi-dosing; for Number of differentially expressed genes identified: Brain Hemi: Table 13: Naïve, Single Dose (so in the source), 12 h after last dosing. How it is done:
In vivo, DMF is rapidly metabolized to monomethyl fumarate (MMF). […] Animals were exposed to CO2 and whole blood collected via cardiac puncture. Two 100 μl aliquots of whole blood were collected in 1.5 mL microcentrifuge tubes and snap frozen in liquid nitrogen. Peripheral (liver, spleen, kidney and jejunum) and CNS brain (cerebellum, hippocampus, striatum and cortex) tissues were harvested and snap frozen in liquid nitrogen, with special care taken to collect tissues of similar size and from the same location. All samples were stored at -80° C. until RNA extraction was conducted. For RNA preparation, frozen tissues were placed in 2 mL RNAse-free 96-well blocks with 1.5 mL QIAzol Lysis Reagent (QIAgen) and a 3.2 mm stainless steel bead (BioSpec Products, Bartlesville, Okla.). Tissues were disrupted for four cycles of 45 seconds in a Mini-Beadbeater (Biospec Products). RNA was extracted in chloroform and the aqueous phase was mixed with an equal volume of 70% ethanol. Extracted RNA was applied to RNeasy 96 plates and purified by the spin method according to the manufacturer's protocol (RNeasy 96 Universal Tissue Protocol, QIAgen, Hilden Germany). […] Two micrograms of biotin labeled […] probe were hybridized to Affymetrix GeneChip Affymetrix HT_MG-430_PM plate arrays with modified conditions as described in […] et al. Washing and staining of the hybridized arrays were completed as described in the GeneChip Expression analysis technical manual for HT plate arrays using the Genechip® Array Station (Affymetrix, Santa Clara, Calif.) with modifications as described in […] et al. The processed GeneChip® plate arrays were scanned using GeneTitan scanner (Affymetrix, Santa Clara, Calif.). Affymetrix scans were subject to quality control (QC) measures. These tests included a visual inspection of the distribution of raw signal intensities and an assessment of RNA degradation, relative log expression (RLE), and normalized unsealed standard error (NUSE). All sample scans that passed these QC metrics were included in the analysis. All CEL files were subjected to GC-content-based Robust Multi-array Average (GCRMA) normalization (version 2.20.0) (Irizarry R A, et al. Nucleic Acids Res 2003; 31:e15; Li C, et al. […] Stat Appl Genet Mol Biol 2004; 3:Article3). […] Springer Science+Business Media 2005). Changes in gene expression were studied by applying a linear modeling approach to fit gene expression levels according to the defined groups of samples (e.g. DMF-, MMF-, and Vehicle-treated animals) and Bayesian posterior error analysis as implemented by Smyth (Smyth G K. Stat Appl Genet Mol Biol 2004; 3:Article3). The comparisons considered included: DMF-vs-MMF, DMF-vs-Vehicle, and MMF-vs-Vehicle. […] Very few DEGs are observed in blood and tissues derived from the central nervous system (brain, cerebellum, cortex, striatum, and spinal cord).

Take `COC(=O)/C=C/C(=O)OC` [DMF, dimethyl fumarate]: in test [1] (NK cells), the “Klrb1b (NK1.1) protein expression change, MFI difference compared to MMF 12 hr or vehicle control” value is “differentially expressed; also recorded: Significant”; the “Klrc1 (Nkg2a) protein expression change, MFI difference compared to MMF 12 hr or vehicle control” value is given as “differentially expressed; also recorded: Significant”; the “Klrd1 (CD94) protein expression change, MFI difference compared to MMF 12 hr or vehicle control” value is on record as “differentially expressed”; the “Klrk1 (NKG2d) protein expression change, MFI difference compared to MMF 12 hr or vehicle control” value is “differentially expressed; also recorded: Significant”. The “Ncr1 (NKp46) protein expression change, MFI difference compared to MMF 12 hr or vehicle control” value in test [1] (NK cells) is listed as “Not significant”. Further, the “Effects on NK cells in the spleen” value in test [1] (naïve mice) is listed as “exerts effects on NK cells in the spleen”. Also, the FC in test [2] (2310079F09Rik 1433201_PM_at) is given as 2.00. This molecule also displayed an FC in test [2] (8430408G22Rik 1433836_PM_a_at) of 1.77. In test [2] (DMF-vs-MMF), the “FC, Depp (1433836_PM_a_at)” value was 1.78. Also, in test [2] (DMF-vs-Vehicle), the “FC, Depp (1433836_PM_a_at)” value came to 1.77. Moreover, in test [2] (Pvrl3 1457257_PM_x_at), the FC is −1.69. Besides, in test [2] (100 mpk DMF-vs-90 mpk MMF), the “Number of differentially expressed genes identified: Brain Hemi” value is 8. In addition, the “Number of differentially expressed genes identified: Brain Hemi” value in test [2] (100 mpk DMF-vs-Vehicle) was 3. Further, the “DEPP gene induction (mRNA)” value in test [2] (brain, multi-dosing regimen, naïve mice) is listed as “robustly induced”.
